{"source": "patent US10869478B2", "about": "“Uses of 2-(2,4-dichlorophenyl)methyl-4,4-dimethyl-3-isoxazolidone as foliar herbicide” (Bayer CropScience Aktiengesellschaft, priority 2015, dated 2020)", "format_in_all_cases": "in vivo", "key": {"Triticum aestivum": {"tested_on": "Triticum aestivum", "details": "200 g a.i./ha", "experimental": "(§1) The experiments were conducted as post applied field trials with plot sizes of 11.25-15 qm, an application volume of 250-300 liter water per hectare and two to three repetitions. Seeds of different crops and various monocot and dicot weeds were either sown or the monocot and dicot weeds were grown naturally and established under common field conditions. The evaluation 13-46 days after application was assessed visually. Treated plants were compared to untreated plants (0-100% scale). In the tables below, GS (growth stage) corresponds to BBCH-code (see for reference Lancashire, P. D.; H. Bleiholder; P. Langeluddecke; R. Stauss; T van den Boom; E. Weber; A. Witzen-Berger (1991). “A uniform decimal code for growth stages of crops and weeds”: Ann. Appl. Biol. 119 (3): 561-601; or Witzenberger, A.; H. Hack; T van den Boom (1989): “Erläuterungen zum BBCH-Dezimal-Code für die Entwicklungsstadien des Getreides—mit Abbildungen”. Gesunde pflanzen 41: 384-388; or Zadoks, J. C., Chang, T T & Konzak, C. F. (1974): A decimal code for the growth stages of cereals. Weed Research 14, 415421)\n(§2) The generated values from applications alone and in combination were used to evaluate the combinatorial effects according to S. R. Colby, Weeds 15, pages 20 to 22 (1967).\n(§3) The abbreviations have the following meaning: • a.i.=active ingredient • E=Observed combination effect value • EC=Calculated combination effect value according to Colby (EC=A+B−A×B/100) • Diff:=Difference (%) between observed and expected combination effect value (%) (observed minus expected value)"}, "Hordeum vulgare": {"tested_on": "Hordeum vulgare", "details": "Table 2; post emergence application GS29, field trial; 200 g a.i./ha; visual, 0-100% scale vs untreated", "experimental": "as §1, §2, §3"}, "Centaurea cyanus": {"tested_on": "Centaurea cyanus", "assay": "Post-emergence field trial, herbicidal effect", "details": "post emergence application GS18, field trial", "experimental": "as §1, §2, §3"}, "Galium aparine": {"tested_on": "Galium aparine", "assay": "Post-emergence field trial, herbicidal effect", "details": "post emergence application GS23, field trial", "experimental": "as §1, §2, §3"}, "Papaver rhoeas": {"tested_on": "Papaver rhoeas", "assay": "Post-emergence field trial, herbicidal effect", "details": "Table 8; post emergence application GS18, field trial; 50 g a.i./ha", "experimental": "as §1, §2, §3"}}}
{"smiles": "CC1(C)CON(Cc2ccc(Cl)cc2Cl)C1=O", "note": "[COMPOUND I, 2-(2,4-dichlorophenyl)methyl-4,4-dimethyl-3-isoxazolidone]", "values": [{"measurement": "Efficacy/selectivity [%] against Triticum aestivum", "setting": "Triticum aestivum; Table 1, post emergence application GS30, field trial, visual, 0-100% scale vs untreated", "value": 30, "unit": "%"}, {"measurement": "Efficacy/selectivty [%] against Triticum aestivum", "setting": "Triticum aestivum; Table 3, post emergence application GS29, field trial", "value": 18, "unit": "%"}, {"measurement": "Efficacy/selectivity [%] against Hordeum vulgare", "setting": "Hordeum vulgare", "value": 32, "unit": "%"}, {"measurement": "Efficacy [%] against Centaurea cyanus", "setting": "Centaurea cyanus; Table 5, 50 g a.i./ha", "value": 25, "unit": "%"}, {"measurement": "Efficacy [%] against Centaurea cyanus", "setting": "Centaurea cyanus; Table 6, 50 g a.i./ha", "value": 25, "unit": "%"}, {"measurement": "Efficacy [%] against Centaurea cyanus", "setting": "Centaurea cyanus; Table 9, 100 g a.i./ha", "value": 75, "unit": "%"}, {"measurement": "Efficacy [%] against Galium aparine", "setting": "Galium aparine; Table 4, 100 g a.i./ha", "value": 25, "unit": "%"}, {"measurement": "Efficacy [%] against Galium aparine", "setting": "Galium aparine; Table 7, 100 g a.i./ha", "value": 0, "unit": "%"}, {"measurement": "Efficacy [%] against Papaver rhoeas", "setting": "Papaver rhoeas", "value": 0, "unit": "%"}]}
{"smiles": "Nc1c([N+](=O)[O-])ccc(Oc2ccccc2)c1Cl", "note": "[aclonifen, reference compound]", "values": [{"measurement": "Efficacy [%] against Centaurea cyanus", "setting": "Centaurea cyanus; Table 9, 450 g a.i./ha", "value": 0, "unit": "%"}]}
{"smiles": "CCCCCCCC(=O)Oc1c(Br)cc(C#N)cc1Br", "note": "[bromoxynil AS octanoate, reference compound]", "values": [{"measurement": "Efficacy [%] against Galium aparine", "setting": "Galium aparine; Table 7, 175 g a.i./ha", "value": 10, "unit": "%"}]}
{"smiles": "O=C(Nc1ccc(F)cc1F)c1cccnc1Oc1cccc(C(F)(F)F)c1", "note": "[diflufenican, reference compound]", "values": [{"measurement": "Efficacy [%] against Centaurea cyanus", "setting": "Centaurea cyanus; Table 6, 75 g a.i./ha", "value": 0, "unit": "%"}]}
{"smiles": "Nc1c(Cl)c(F)nc(OCC(=O)O)c1Cl", "note": "[fluroxypyr, reference compound]", "values": [{"measurement": "Efficacy [%] against Centaurea cyanus", "setting": "Centaurea cyanus; Table 5, 150 g a.i./ha", "value": 30, "unit": "%"}]}
{"smiles": "CSc1nnc(C(C)(C)C)c(=O)n1N", "note": "[metribuzin, reference compound]", "values": [{"measurement": "Efficacy [%] against Papaver rhoeas", "setting": "Papaver rhoeas", "value": 0, "unit": "%"}]}
